One assay concerns GRN mRNA. Briefly: qPCR of GRN mRNA in human NPCs (enhancer screen and follow-up). Type of assay: cell-based. Particulars: 24 h; for increase of GRN mRNA: NPCs. As for the experimental part:
(§1) All compounds were purchased from commercial vendors. All compounds were made at 1000 × stocks in DMSO (Sigma Aldrich #D2438), except for sodium valproate, which was dissolved in ddH2O. NPCs and neurons were generated and maintained as described above. For treatment, the stock compounds were diluted 1:1000 in NPC media (final DMSO concentration 0.1%), which was then applied to confluent NPCs or 18-day differentiated neurons derived from confluent NPC cultures for indicated time periods.
RNA was generated from each well of a 6-well treated plate of NPCs or neurons. First, media from each well was aspirated, and washed with 1 mL of dPBS. Wells were then lysed with 1 mL TRIzol Reagent (ThermoFisher #11,596,026). Wells were then incubated at room temperature for 5 min, and then RNA was extracted using the DirectZol RNA MiniPrep Kit (Zymo Research #R2052). RNA was stored at − 80 °C until further use. cDNA was generated using the High-Capacity cDNA synthesis Kit with RNase inhibitor (ThermoFisher #4,368,814) using 1000–1200 ng RNA per reaction. cDNA was either used immediately or stored at -20 °C until use, where it was then diluted 1:4 with DNase/RNase-free water (Invitrogen #10,977–015).
qPCR was conducted using the Roche 480 Light Cycler in a 384-well plate. To each well was added 5 μL of TaqMan 2X Gene Expression Master Mix (ThermoFisher #4,369,510), 0.5 μL of 20X TaqMan primer probe (ThermoFisher, GRN: Hs00963707_g1, GAPDH: Cat.#432924E), 0.5 μL of DNase/RNase-free H2O, and 4 μL of above diluted cDNA. Results were normalized to GAPDH, and replicate mean values and standard error of the mean are reported.
For orientation: In qPCR the cycle at which signal appears reflects the starting amount.

For assay [1], the system named is PGRN protein levels. Briefly: Immunoblotting of PGRN protein in human NPCs. Type of assay: cell-based. The following applies: 24 h, immunoblot. As to the method: as §1
Cell pellets were collected from each well of a 6-well plate (or lysed directly in-well for 24-well plates), lysed in radio immunoprecipitation assay (RIPA) buffer (Boston BioProducts #BP-115) with EDTA-free protease inhibitors (Sigma Aldrich #4,693,159,001) and a phosphatase inhibitor cocktail (Sigma Aldrich #P5726) and nutated at 4 °C for 15–30 min. Lysates were clarified via centrifugation at > 14,000 rcf at 4 °C for > 10 min and the supernatants were collected. Protein quantification was done with the Pierce bicinchoninic assay (BCA) (Thermo Fisher #23,227). Lysates were then stored between − 20 and − 80 °C until ready for use. […]
(§2) In probing for PGRN, proteins were separated on NuPAGE 4–12% Bis–Tris gels (ThermoFisher #NP0335BOX) in MOPS SDS Running buffer (ThermoFisher #NP0001). […] Protein quantification was done with ImageJ and normalized to GAPDH.
(A western blot detects proteins with antibodies after separation by electrophoresis.)

Assay [2] relates to PGRN protein levels. Briefly: Immunoblotting of PGRN protein in 18-day differentiated neurons. Type of assay: cell-based, human. The following applies: 24 hours, immunoblot. As for the experimental part:
NPCs were seeded at 0.5 × 10^6 cells per well in a poly-ornithine/laminin single coated 6-well plate in 2 mL NPC media with above growth factors. Cells were allowed to incubate at 37 °C for 48–72 h to grow to confluency. After reaching confluency, the media was aspirated, and cells were incubated in NPC media without growth factors for the indicated timeframes, with media changes every 3–4 days.
All compounds were purchased from commercial vendors. All compounds were made at 1000 × stocks in DMSO (Sigma Aldrich #D2438), except for sodium valproate, which was dissolved in ddH2O. NPCs and neurons were generated and maintained as described above. […]
Cell pellets were collected from each well of a 6-well plate (or lysed directly in-well for 24-well plates), lysed in radio immunoprecipitation assay (RIPA) buffer (Boston BioProducts #BP-115) with EDTA-free protease inhibitors (Sigma Aldrich #4,693,159,001) and a phosphatase inhibitor cocktail (Sigma Aldrich #P5726) and nutated at 4 °C for 15–30 min. […] Protein quantification was done with the Pierce bicinchoninic assay (BCA) (Thermo Fisher #23,227). Lysates were then stored between − 20 and − 80 °C until ready for use. […]
as §2

Assay [3] has as its system PGRN protein levels. Briefly: PGRN quantification (Jess) in GRN R493X/+ NPCs. Particulars: 24 h. Type of assay: cell-based, human. As for the experimental part: (§3) PGRN capillary gel electrophoresis experiments were performed using Jess (Bio-Techne) and data were processed and analyzed using Compass for Simple Western software (version 6.0). Runs were conducted using EZ Standard Pack 1 12–230 kDa (Bio-Techne PS-ST01EZ-8), 12–230 kDa pre-filled plates (PS-PP03), 12–230 kDa separation module (SMW004), anti-rabbit HRP detection (DM-001), RePlex (RP-001), and total protein detection modules (DM-TP01, biotin labeling reagent 042-973) according to the manufacturer’s instructions, and with anti-PGRN primary (Abcam ab208777) diluted 1:50 in milk-free antibody dilution buffer (043–524). The following run settings were used for each experiment: separation time: 25 min, separation voltage: 375 V, RePlex purge time: 30 min, biotin labeling time: 30 min, antibody diluent time: 5 min, primary antibody time: 30 min, secondary antibody time: 30 min, total protein HRP time: 30 min. All intensity quantifications are normalized to the total protein assay quantification unless otherwise indicated.
(§4) For GRN^R493^X/+ NPCs, cells were grown to confluency in 6-well plates according to the above NPC culturing procedure. To each well was directly added 2 µL of 100 µM panobinostat, […], or DMSO only to produce final in-well concentrations of 100 nM or 1 µM, respectively (0.1% DMSO final concentration). […]

Assay [4] concerns PGRN protein levels. Briefly: PGRN quantification (Jess) in GRN R493X/+ 14-day differentiated neurons. It is filed as cell-based, human. The following applies: GRN R493X/+ 14-day growth factor differentiated neurons, 24 h. As to the method: as §3, §4
The next assay deals with PGRN-Luc. Briefly: HMC3 PGRN-luciferase reporter assay. It is filed as cell-based, human. Particulars: HMC3 PGRN-Luc cells, 20 h. As to the method: HMC3 PGRN-Luc cells were trypsinized from confluent T-75 flasks and re-suspended in HMC-3 media at 150,000–200,000 cells/mL. 30 µL of cell suspension was then seeded onto each well of black, 384-well clear-bottom plates (Corning 3712) using the Multidrop Combi (Thermo Fisher). Cells were allowed to adhere to plates in the incubator at 37 °C/5% CO2 for 6–8 h. After 6–8 h, compounds were added to each well using the D300e (Tecan) compound dispenser, and all wells were DMSO-normalized (0.3%). Cells were allowed to incubate with compounds for indicated timeframes.
Plates were removed from the incubator and allowed to cool to RT. 15 µL of media was removed from each well using a multichannel pipette and added to separate Corning 3712 plates for a read of “secreted” PGRN. To both the media-containing plates as well as the cell-containing plates (with 15 µL media remaining) is then added 15 µL of active luminescence reagent (Thermo 18,636) which was generated according to manufacturer’s instructions. Plates were allowed to nutate at RT for 15 min prior to reading using the EnVision (PerkinElmer). For calculation of the internal PGRN-Luc signal, the secreted signal (15 µL media) was subtracted from the signal of the cell-containing plates (with 15 µL media remaining). For “total” PGRN-Luc signal, a sample of media was not aliquoted into a separate plate, and instead, 30 µL of active luminescence reagent was added directly to each well.
For the mivebresib and panobinostat time-course experiment, the above procedure was followed, with the exception that cells were seeded at 66,600 cells/mL in 30 µL media, and allowed to grow overnight prior to compound addition for the indicated timeframes.
A general note: A reporter such as luciferase makes a cellular process visible.

Consider `COc1ccccc1S(=O)(=O)Nc1ccc2c(c1)CN(C)C(=O)N2` [PFI-1], for which the “increase of GRN mRNA” value in the assay with GRN mRNA (10 µM) is on record as ~ 2.5 fold. Moreover, in the assay on PGRN protein levels [1] (10 µM), the PGRN protein levels result is given as “substantially increased PGRN protein levels”. Also, the PGRN expression entry with PGRN protein levels [2] (10 µM) is “can enhance PGRN expression”.
As for `Cc1[nH]c2ccccc2c1CCNCc1ccc(/C=C/C(=O)NO)cc1` [Panobinostat, panobinostat], the “GRN Fold-change (Norm. to GAPDH) ± Std. Error” value in the assay on GRN mRNA (human NPCs, dose 1 µM, relative to DMSO) was 3.08 ± 0.35. The PGRN protein levels result in the assay with PGRN protein levels [3] is on record as “rescues PGRN haploinsufficiency”. The PGRN protein levels entry in the assay with PGRN protein levels [4] is “rescues PGRN haploinsufficiency”. In addition, in the assay with PGRN-Luc, the “enhancement of internal PGRN-Luc signal” value was “able to enhance both internal and secreted PGRN at sub-µM concentrations”; the “enhancement of secreted PGRN-Luc signal” value is “able to enhance both internal and secreted PGRN at sub-µM concentrations”.
As for `Cc1sc2c(c1C)C(c1ccc(Cl)cc1)=N[C@@H](CC(=O)OC(C)(C)C)c1nnc(C)n1-2` [(+)-JQ1], in the assay on GRN mRNA (1 µM), the “increase of GRN mRNA” value is listed as ~ 2.5 fold. The PGRN protein levels entry in the assay with PGRN protein levels [1] (1 µM) is “substantially increased PGRN protein levels”. Also, the PGRN expression result in the assay with PGRN protein levels [2] (1 µM) is listed as “can enhance PGRN expression”.

The record behind these values is paper PMC11032351, “Epigenetic modulation through BET bromodomain inhibitors as a novel therapeutic strategy for progranulin-deficient frontotemporal dementia” (Scientific Reports, 2024).
